In patent US12084472B2 (Ardelyx, Inc., priority 2015, dated 2024):

Biological target: T1, human TGR5 (Homo sapiens, UniProt Q8TDU6)
T1 construct: expressed in transfected cells; host or cells: HEK293
T1 sequence (Q8TDU6 1-330): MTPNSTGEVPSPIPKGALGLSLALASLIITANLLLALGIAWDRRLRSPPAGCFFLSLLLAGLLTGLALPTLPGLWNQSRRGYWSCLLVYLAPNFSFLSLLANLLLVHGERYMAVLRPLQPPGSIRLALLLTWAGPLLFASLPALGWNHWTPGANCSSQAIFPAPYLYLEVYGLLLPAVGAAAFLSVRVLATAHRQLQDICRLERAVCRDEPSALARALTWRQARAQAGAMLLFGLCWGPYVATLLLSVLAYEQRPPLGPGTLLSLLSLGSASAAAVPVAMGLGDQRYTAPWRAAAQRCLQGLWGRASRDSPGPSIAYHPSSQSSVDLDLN
Assay: Cell-based TGR5 assay (cAMP generation, HTRF)
Details: HEK293 cells stably transfected with human TGR5; cAMP by HTRF; 30 minutes at 37° C.; read-out: pEC50 Human TGR5 (converted)
Method in brief: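 Read-out was HTRF detection of cAMP, converted to concentration via a standard curve and fitted (3-parameter logistic) for pEC50 and maximal response. Agonist stimulation used HEK293 cells stably transfected with human TGR5, incubated 30 min at 37° C in IBMX-containing buffer at 0.05 nM to 10 μM compound.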

Row | EC50 | SMILES
1 | 126 to 1000 nM | CN(C)S(=O)(=O)CCN(C[C@H](O)[C@@H](O)[C@H](O)[C@H](O)CO)C(=O)CCCSc1ccc(Cl)c(COC2(c3cnccc3-c3ccccc3OC3CC3)CC2)c1 [Compound I-693, 4-{[4-chloro-3-({1-[4-(2-cyclopropoxyphenyl)pyridin-3-yl]cyclopropoxy}methyl)phenyl]sulfanyl}-N-[2-(dimethylsulfamoyl)ethyl]-N-[(2S,3R,4R,5R)-2,3,4,5,6-pentahydroxyhexyl]butanamide]
2 | < 100 nM | CN(C[C@H](O)[C@@H](O)[C@H](O)[C@H](O)CO)C(=O)NC1CCN(C(=O)CCCCc2cc(Cl)c(COC3(c4cnccc4-c4ccccc4OC4CC4)CC3)cc2Cl)CC1 (stereo in doubt) [Compound I-159, 1-(1-{5-[2,5-dichloro-4-({1-[4-(2-cyclopropoxyphenyl)pyridin-3-yl]cyclopropoxy}methyl)phenyl]pentanoyl}piperidin-4-yl)-3-methyl-3-[(2S,3R,4R,5R)-2,3,4,5,6-pentahydroxyhexyl]urea]
3 | < 100 nM | COCCN(CCCCNC(=O)N[C@@H](CO)[C@@H](O)[C@H](O)[C@H](O)CO)S(=O)(=O)c1ccc(Cl)c(COC2(c3cnccc3-c3ccccc3OC3CC3)CC2)c1 [Compound I-416, 1-{4-[N-(2-methoxyethyl)4-chloro-3-({1-[4-(2-cyclopropoxyphenyl)pyridin-3-yl]cyclopropoxy}methyl)benzenesulfonamido]butyl}-3-[(2S,3R,4S,5R)-1,3,4,5,6-pentahydroxyhexan-2-yl]urea]
4 | < 100 nM | O=C(NCCOCCSc1ccc(Cl)c(COC2(c3cnccc3-c3ccccc3OC3COC3)CC2)c1)NC[C@H](O)[C@@H](O)[C@H](O)[C@H](O)CO [Compound I-493, 1-(2-(2-(4-Chloro-3-((1-(4-(2-(oxetan-3-yloxy)phenyl)pyridin-3-yl)cyclopropoxy)methyl)phenylthio)ethoxy)ethyl)-3-((2S,3R,4R,5R)-2,3,4,5,6-pentahydroxyhexyl)urea]
5 | < 100 nM | COc1cccc(Cl)c1-c1ccncc1C1(OCc2cc(Cl)ccc2Cl)CC1 [Compound I-765, 4-(2-chloro-6-methoxyphenyl)-3-(1-((2,5-dichlorobenzyl)oxy)cyclopropyl)pyridine]
6 | 126 to 1000 nM | C[C@@H](CCCCN)c1ccc(Cl)c(CNC2(c3cnccc3-c3ccccc3OC3CC3)CC2)c1 (single isomer, unassigned) [Compound I-243]
7 | < 100 nM | CC(C)N(C[C@H](O)[C@@H](O)[C@H](O)[C@H](O)CO)C(=O)CCCCc1cc(Cl)c(COC2(c3cnccc3-c3ccccc3OC3CC3)CC2)cc1Cl [Compound I-128, 5-[2,5-dichloro-4-({1-[4-(2-cyclopropoxyphenyl)pyridin-3-yl]cyclopropoxy}methyl)phenyl]-N-[(2S,3R,4R,5R)-2,3,4,5,6-pentahydroxyhexyl]-N-(propan-2-yl)pentanamide]
8 | 126 to 1000 nM | Cc1nc(C)c(CNC2(c3cnccc3-c3ccccc3OC3CC3)CC2)nc1C [Compound I-27, 1-[4-(2-cyclopropoxyphenyl)pyridin-3-yl]-N-[(trimethylpyrazin-2-yl)methyl]cyclopropan-1-amine]
9 | 126 to 1000 nM | O=C([C@@H](O)[C@@H](O)[C@H](O)[C@@H](O)CO)N(CCCSc1ccc(Cl)c(CNC2(c3cnccc3-c3ccccc3OC3CC3)CC2)c1)CC1CCOCC1 [Compound I-553, (2S,3S,4R,5S)-N-[3-({4-chloro-3-[({1-[4-(2-cyclopropoxyphenyl)pyridin-3-yl]cyclopropyl}amino)methyl]phenyl}sulfanyl)propyl]-2,3,4,5,6-pentahydroxy-N-(oxan-4-ylmethyl)hexanamide]
10 | 126 to 1000 nM | C[C@H](CCCCN)c1ccc(Cl)c(COC2(c3cnccc3-c3ccccc3OC3CC3)CC2)c1 (single isomer, unassigned) [Compound I-245]
11 | < 100 nM | CN(CCCCNC(=O)NC[C@H](O)[C@@H](O)[C@H](O)[C@H](O)CO)S(=O)(=O)c1ccc(Cl)c(COC2(c3cnccc3-c3ccccc3OC3CC3)CC2)c1 (stereo in doubt) [Compound I-402, 1-{4-[N-methyl4-chloro-3-({1-[4-(2-cyclopropoxyphenyl)pyridin-3-yl]cyclopropoxy}methyl)benzenesulfonamido]butyl}-3-[(2S,3R,4R,5R)-2,3,4,5,6-pentahydroxyhexyl]urea]
12 | < 100 nM | C[C@@H](CCCCNC(=O)NC[C@H](O)[C@@H](O)[C@H](O)[C@H](O)CO)c1ccc(Cl)c(CNC2(c3cnccc3-c3ccccc3OC3CC3)CC2)c1 (single isomer, unassigned) [Compound I-255]
13 | < 100 nM | Cc1ccc(Cl)c(COC2(c3cnccc3-c3ccccc3OC3CC3)CC2)c1 [Compound I-54, 3-{1-[(2-chloro-5-methylphenyl)methoxy]cyclopropyl}-4-(2-cyclopropoxyphenyl)pyridine]
14 | < 100 nM | Cc1ccc(C(C)CCCCNC(=O)[C@@H](O)[C@@H](O)[C@H](O)[C@@H](O)CO)cc1CNC1(c2cnccc2-c2ccccc2OC2CC2)CC1 (stereo partly drawn) [Compound I-300, (2S,3S,4R,5S)-N-(5-{3-[({1-[4-(2-cyclopropoxyphenyl)pyridin-3-yl]cyclopropyl}amino)methyl]-4-methylphenyl}hexyl)-2,3,4,5,6-pentahydroxyhexanamide]
15 | < 100 nM | CSc1ccc(Cl)c(COC2(c3cnccc3-c3ccccc3OC3CC3)CC2)c1 [Compound I-617, 3-(1-{[2-chloro-5-(methylsulfanyl)phenyl]methoxy}cyclopropyl)-4-(2-cyclopropoxyphenyl) pyridine]
16 | < 100 nM | NC(=O)CN(CCCCCSc1ccc(Cl)c(COC2(c3cnccc3-c3ccccc3OC3CC3)CC2)c1)C(=O)[C@@H](O)[C@@H](O)[C@H](O)[C@@H](O)CO [Compound I-609, (2S,3S,4R,5S)-N-(carbamoylmethyl)-N-(5-{[4-chloro-3-({1-[4-(2-cyclopropoxyphenyl)pyridin-3-yl]cyclopropoxy}methyl)phenyl]sulfanyl}pentyl)-2,3,4,5,6-pentahydroxyhexanamide]
17 | 126 to 1000 nM | O=C(NCCCC(CO)c1ccc(Cl)c(CNC2(c3cnccc3-c3ccccc3OC3CC3)CC2)c1)[C@@H](O)[C@@H](O)[C@H](O)[C@@H](O)CO (stereo partly drawn) [Compound I-380, (2S,3S,4R,5S)-N-(4-[4-chloro-3-[([1-[4-(2-cyclopropoxyphenyl)pyridin-3-yl]cyclopropyl]amino)methyl]phenyl]-5-hydroxypentyl)-2,3,4,5,6-pentahydroxyhexanamide]
18 | < 100 nM | Cc1cc(COC2(c3cnccc3-c3ccccc3OC3CC3)CC2)c(Cl)cc1CCCCN(CCOCCO)C(=O)NC[C@H](O)[C@@H](O)[C@H](O)[C@H](O)CO [Compound I-117, 1-{4-[5-chloro-4-({1-[4-(2-cyclopropoxyphenyl)pyridin-3-yl]cyclopropoxy}methyl)-2-methylphenyl]butyl}-1-[2-(2-hydroxyethoxy)ethyl]-3-[(2S,3R,4R,5R)-2,3,4,5,6-pentahydroxyhexyl]urea]
19 | < 100 nM | Cc1ccc(C(F)(F)F)cc1CNC1(c2cnccc2-c2ccccc2OC2CC2)CC1 [Compound I-37, 1-[4-(2-cyclopropoxyphenyl)pyridin-3-yl]-N-{[2-methyl-5-(trifluoromethyl)phenyl]methyl}cyclopropan-1-amine]
20 | < 100 nM | CC(C)N(CCCCNC(=O)NC[C@H](O)[C@@H](O)[C@H](O)[C@H](O)CO)S(=O)(=O)c1ccc(Cl)c(COC2(c3cnccc3-c3ccccc3OC3CC3)CCOC2)c1 (stereo partly drawn) [Compound I-750, 4-chloro-3-(((3-(4-(2-cyclopropoxyphenyl)pyridin-3-yl)tetrahydrofuran-3-yl)oxy)methyl)-N-isopropyl-N-(4-(3-((2S,3R,4R,5R)-2,3,4,5,6-pentahydroxyhexyl)ureido)butyl) benzenesulfonamide]
21 | 126 to 1000 nM | O=C1CCCN1CCCN(CCCCSc1ccc(Cl)c(CNC2(c3cnccc3-c3ccccc3OC3CC3)CC2)c1)C(=O)[C@@H](O)[C@@H](O)[C@H](O)[C@@H](O)CO [Compound I-554, (2S,3S,4R,5S)-N-[4-({4-chloro-3-[({1-[4-(2-cyclopropoxyphenyl)pyridin-3-yl]cyclopropyl}amino)methyl]phenyl}sulfanyl)butyl]-2,3,4,5,6-pentahydroxy-N-[3-(2-oxopyrrolidin-1-yl)propyl]hexanamide]
22 | < 100 nM | O=S(=O)(Nc1nccs1)c1ccc(Cl)c(COC2(c3cnccc3-c3ccccc3OC3CC3)CC2)c1 [Compound I-770, 4-chloro-3-((1-(4-(2-cyclopropoxyphenyl)pyridin-3-yl)cyclopropoxy)methyl)-N-(thiazol-2-yl)benzenesulfonamide]
23 | < 100 nM | CC(CCCCC(=O)N(C)C[C@H](O)[C@@H](O)[C@H](O)[C@H](O)CO)c1ccc(Cl)c(CNC2(c3cnccc3-c3ccccc3OC3CC3)CC2)c1 (stereo partly drawn) [Compound I-330, 6-{4-chloro-3-[({1-[4-(2-cyclopropoxyphenyl)pyridin-3-yl]cyclopropyl}amino)methyl]phenyl}-N-methyl-N-[(2S,3R,4R,5R)-2,3,4,5,6-pentahydroxyhexyl]heptanamide]
24 | < 100 nM | O=S(=O)(c1ccc(Cl)c(COC2(c3cnccc3-c3ccccc3OC3CC3)CC2)c1)N1CCc2nc(O)ccc2C1 [Compound I-734, 6-[[4-chloro-3-([1-[4-(2-cyclopropoxyphenyl)pyridin-3-yl]cyclopropoxy]methyl)benzene]sulfonyl]-5,6,7,8-tetrahydro-1,6-naphthyridin-2-ol]
